Experimental findings from publication PMC6452685, “Lysyl-tRNA synthetase as a drug target in malaria and cryptosporidiosis” (Proceedings of the National Academy of Sciences of the …, 2019) are described below.

In series [1] the target is human ether-à-go-go related gene (hERG) K+ channel (Homo sapiens, UniProt Q12809). The experiment in a line: hERG K+ channel assay (IonWorks patch clamp). It is filed as cell-based. On the technique in general: The hERG channel carries a current that helps repolarise heart muscle cells.
The nature of series [2]: Toxicity in mice at higher doses. It is filed as in vivo. Particulars: higher doses (50 mg/kg orally).
Another series deals with Pf(TM90C2B). In words: Drug resistant P. falciparum TM90C2B, [3H]-hypoxanthine incorporation. Particulars: Plasmodium falciparum, atovaquone-resistant. Format: cell-based. An excerpt: 3.2 Cytotoxicity Studies (Dundee)
In vi t ro cy totox i ci ty s tudies can be ca rri ed out us i ng Hep G 2 (Human C aucas i an hepatocy te ca rci noma, ECACC cat. no. 850 114 30) us ed as i ndi cators f or g eneral mammal i an cel l tox i ci ty . […]
3.3 In vitro Cell Assay D ata Analysis (Du ndee) […]
as 0%. Qual i ty control c ri teri a for passi ng pl ates were as fol l ow s : Z’ > 0.
< 15 . T he f ormula used to calculate Z’ is 1- 3´ (St D e v _ hi gh + St D e v_ low) . […]
Al l EC50 Curve fitti ng was undertaken usi ng XLFi t versi on 4.2 usi ng Model 205 wi th the foll owi ng 4 paramet ri c equat i on: A + (?-A) ,where A=% i nhi bi ti on at bo ttom, B=% i nhi bi ti on at top, C= EC , […]
D= slope, x= inhibitor concentration a nd y= % inhibition. […]
was fixed to 100 only when at least 50% of inhibition was reached. […]
Hoffmann-La Ro che Ltd) a nd resi stant strai ns K1 and TM90C2B (fr om the Malaria Research an d Reference Reag ent Res ou rce C enter, accu rate d es cri pti ons of the g eneti c backg roun ds of thes e strains can be obtained at http://www.beiresources.org) were cultivated in a variation of the medium prev i ous l y des cri bed (5, 6), c onsi sti ng of RPMI 16 40 su ppl emented wi th 0.5% ALBUMAX® II, 25 m M Hepes , 25 mM NaHC O3 (pH 7. […] The re s ul t s were recorded and expressed as a percentage of the untreated controls. […]

Another series relates to C. parvum. The experiment in a line: In vitro Cryptosporidium time-kill curve assay in HCT-8 cells. It is filed as cell-based. Conditions: C. parvum in HCT-8 cell culture. The protocol:
SUPPLEMENTARY INFORMATION ileocecal adenocarcinoma (HCT-8) cel l s (ATC C ) w ere cul t ured i n RP M I 1640 medi um (I nv i t rog en) supplemented with 10% fetal bovine serum (Sigma-Al dri ch), 120 U/ml peni ci l l i n, and 12 0 µg/ml streptomycin (ATCC), and used between passages 9 and 39 for all experiments. Cryptospori di um parvum Iowa isolate oocysts were purchased from Bunch Grass Farm (Deary, ID). Oocys ts were triggered to excyst by treating with 10 mM hydrochloric acid (10 min, 37°C) and the n 2 mM sodium taurocholate (Sigma-Al d r i c h ) i n P B S ( 1 0 m i n , […] ) . They w ere t hen added t o > 95% co nfl uent HC T-8 cel l monol ay ers i n 384-well plates (~5,500 oocysts/well). Ex pe ri me nt al compounds w e re adde d 3 h after i nfecti on, and assay pl ates were incubated for 48 h post-infection at 37°C unde r 5% CO2. Assay pl at es w ere t hen w as hed t h ree t i mes w i t h PBS cont ai ni ng 11 1 mM D-galactose, fixed with 4% parafo rmal dehy de i n PBS, t reat ed f or 10 mi n at 3 7°C w i t h 0. 25% T ri t on X-100, an d s t ai ned w i t h 1. […] […] […] Curves were pl ot t ed and t he hal f-maxi mal effecti ve (EC50) and 90% effecti v e concentrati on (EC90) were cal cul ated us i ng G raphPad Pri s m s oft w are, v ersi on 6. 01. […]
Cryptospori di um parvum elimination during cul ture in HCT-8 cells was measured as recently des cri bed (10). […]

Molecules are shown by their SMILES.

human ether-à-go-go related gene (hERG) K+ channel, sequence (Q12809 whole entry): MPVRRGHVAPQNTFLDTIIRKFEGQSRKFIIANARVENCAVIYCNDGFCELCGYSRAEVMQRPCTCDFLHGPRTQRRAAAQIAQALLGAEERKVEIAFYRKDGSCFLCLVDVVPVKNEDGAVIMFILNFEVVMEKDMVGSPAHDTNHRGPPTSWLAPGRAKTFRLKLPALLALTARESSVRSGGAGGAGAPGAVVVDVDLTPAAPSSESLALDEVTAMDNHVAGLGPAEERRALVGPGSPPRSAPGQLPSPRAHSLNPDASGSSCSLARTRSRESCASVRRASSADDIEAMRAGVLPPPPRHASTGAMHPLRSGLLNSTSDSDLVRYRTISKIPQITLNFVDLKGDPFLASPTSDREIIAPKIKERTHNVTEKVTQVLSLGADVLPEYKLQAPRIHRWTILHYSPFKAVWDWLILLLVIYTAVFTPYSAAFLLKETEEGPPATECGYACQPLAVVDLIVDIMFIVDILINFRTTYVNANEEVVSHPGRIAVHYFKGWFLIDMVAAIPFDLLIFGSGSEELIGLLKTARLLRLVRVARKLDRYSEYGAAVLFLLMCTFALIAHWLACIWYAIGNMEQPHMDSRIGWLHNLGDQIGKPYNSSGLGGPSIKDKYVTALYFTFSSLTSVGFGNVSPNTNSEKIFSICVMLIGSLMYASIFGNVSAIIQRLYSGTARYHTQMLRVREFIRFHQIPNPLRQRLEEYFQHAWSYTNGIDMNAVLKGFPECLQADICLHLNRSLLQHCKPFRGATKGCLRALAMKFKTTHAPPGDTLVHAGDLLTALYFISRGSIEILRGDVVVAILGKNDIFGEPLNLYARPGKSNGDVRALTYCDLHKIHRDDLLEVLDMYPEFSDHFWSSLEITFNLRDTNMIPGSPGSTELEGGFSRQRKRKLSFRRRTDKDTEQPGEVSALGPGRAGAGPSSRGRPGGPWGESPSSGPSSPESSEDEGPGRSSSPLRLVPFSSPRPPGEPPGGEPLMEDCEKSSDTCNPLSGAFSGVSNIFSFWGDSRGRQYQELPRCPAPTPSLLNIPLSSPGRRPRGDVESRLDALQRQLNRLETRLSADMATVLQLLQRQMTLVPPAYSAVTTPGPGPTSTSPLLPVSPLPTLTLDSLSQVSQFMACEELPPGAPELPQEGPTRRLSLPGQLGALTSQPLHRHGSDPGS

Broadly, the EC50 is the concentration at which the effect is half-maximal. Lower therefore signals an effect from little substance. Consider `O=C(NCC1(O)CCC(F)(F)CC1)c1cc(=O)c2cc(F)ccc2o1` [Compound 5], for which the concentration giving a half-maximal response (EC50) was greater than 100000 nM in series [1] and 520 nM with Pf(TM90C2B). Further, the toxicity in mice result in series [2] was “showed toxicity”. Also, the “time-kill curve, parasite elimination” value in the series on C. parvum is listed as “eliminated parasites at an exponential rate”.

For the molecule `C[C@H]1CCC[C@H](C[C@H]2Cc3cc(O)cc(O)c3C(=O)O2)O1` [Compound 1, cladosporin, reference compound], the “time-kill curve, parasite elimination” value with C. parvum is listed as “eliminated parasites at an exponential rate”.
